This assay concerns the target T1, papain (Carica papaya, UniProt P00784).
T1 construct: purchased Sigma Chem. Co
T1 sequence (P00784 134-345): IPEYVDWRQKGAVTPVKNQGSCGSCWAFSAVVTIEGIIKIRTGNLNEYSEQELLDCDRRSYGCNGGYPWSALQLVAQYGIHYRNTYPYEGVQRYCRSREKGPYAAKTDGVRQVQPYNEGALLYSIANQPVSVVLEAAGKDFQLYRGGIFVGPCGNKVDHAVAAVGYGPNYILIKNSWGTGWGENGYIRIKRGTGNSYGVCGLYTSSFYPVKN
Description: Papain inhibitory activity (milk casein proteolysis). Also on record: unit not given beside the values. It is filed as biochemical. The settings on record: amount of inhibitor for 50% inhibition; pH 6.8, 40° C., casein substrate. As to the method:
Papain inhibitory activity of the compounds of the present invention was assayed as follows: To 0.5 ml of a solution of papain (80 μg/ml, Sigma Chem. Co., 2x, cry.), were added 0.25 ml of 40 mM cysteine dissolved in 20 mM disodium ethylenediamine tetraacetic acid solution adjusted pH to 6.8 with sodium hydroxide and 0.25 ml of 33 mM phosphate buffer (pH 6.8) with or without inhibitor. After incubation for 15 minutes at 40° C., the resulting mixture was added to 5 ml of 1% milk casein solution in the same buffer as described above, and further incubated for 10 minutes at 40° C. Then the mixture was mixed with 5 ml of 0.44 M trichloroacetic acid solution and followed by filtration with a sheet of Toyo filter paper No. 4.
The extinction of the filtrate was read at 280 nm. The percent inhibition was calculated from the formula, 100×(B-A)/B; wherein B stands for the absorbance without inhibitor and A for the absorbance with inhibitor. The compound Nos. in Table 2 are as defined in Examples as described hereinafter.
Take `CCOC(=O)[C@@H]1O[C@H]1C(=O)Nc1cccc(C(F)(F)F)c1` (relative stereo) [Compound No. 2, ethyl N-3'-trifluoromethylphenyl-2,3-epoxysuccinamate]: the ID50 is 40.30 γ.

With `CCOC(=O)[C@@H]1O[C@H]1C(=O)Nc1cccc(C(C)=O)c1` (relative stereo) [Compound No. 3, ethyl N-3'-acetylphenyl-2,3-epoxysuccinamate], the ID50 is listed as 34.72 γ.

As for `CCOC(=O)[C@@H]1O[C@H]1C(=O)Nc1ccccc1O` (relative stereo) [Compound No. 4, ethyl N-2'-hydroxyphenyl-2,3-epoxysuccinamate], the ID50 is recorded as 138.88 γ.

Regarding `CCOC(=O)[C@@H]1O[C@H]1C(=O)Nc1ccc(Br)cc1` (relative stereo) [Compound No. 6, ethyl N-4'-bromophenyl-2,3-epoxysuccinamate], the ID50 was 25.51 γ.

With `CCOC(=O)c1ccccc1NC(=O)[C@@H]1O[C@H]1C(=O)OCC` (relative stereo) [Compound No. 7, ethyl N-2'-carboethoxyphenyl-2,3-epoxysuccinamate], the ID50 is reported as 105.93 γ.

Turning to `CCOC(=O)[C@@H]1O[C@H]1C(=O)Nc1c(Cl)cccc1Cl` (relative stereo) [Compound No. 8, ethyl N-2',6'-dichlorophenyl-2,3-epoxysuccinamate], the ID50 was 208.33 γ.

Take `CCOC(=O)[C@@H]1O[C@H]1C(=O)Nc1c(Br)cc(Br)cc1Br` (relative stereo) [Compound No. 9, ethyl N-2',4',6'-tribromophenyl-2,3-epoxysuccinamate]: the ID50 is recorded as 120.19 γ.

With `CCOC(=O)[C@@H]1O[C@H]1C(=O)Nc1cccc(F)c1` (relative stereo) [Compound No. 10, ethyl N-3'-fluorophenyl-2,3-epoxysuccinamate], the ID50 is given as 32.05 γ.

`CCOC(=O)[C@@H]1O[C@H]1C(=O)Nc1ccccn1` (relative stereo) [Compound No. 11, ethyl N-2'-pyridinyl-2,3-epoxysuccinamate]: the ID50 is reported as 25.05 γ.

For the compound `CCOC(=O)[C@@H]1O[C@H]1C(=O)Nc1cccc2cccnc12` (relative stereo) [Compound No. 12, ethyl N-8'-quinolinyl-2,3-epoxysuccinamate], the ID50 is 20.16 γ.

`CCOC(=O)[C@@H]1O[C@H]1C(=O)NCc1ccccc1` (relative stereo) [Compound No. 13, ethyl N-benzyl-2,3-epoxysuccinamate]: the ID50 is recorded as 13.30 γ.

Take `CCOC(=O)[C@@H]1O[C@H]1C(=O)NCc1ccco1` (relative stereo) [Compound No. 14, ethyl N-furfuryl-2,3-epoxysuccinamate]: the ID50 is 67.57 γ.

Consider `CCOC(=O)[C@@H]1O[C@H]1C(=O)NCCc1ccccc1` (relative stereo) [Compound No. 15, ethyl N-phenethyl-2,3-epoxysuccinamate], for which the ID50 is given as 26.04 γ.

On to `CCCNC(=O)[C@@H]1O[C@H]1C(=O)OCC` (relative stereo) [Compound No. 16, ethyl N-propyl-2,3-epoxysuccinamate], for which the ID50 is reported as 22.73 γ.

On to `CCOC(=O)[C@@H]1O[C@H]1C(=O)NCCC(C)C` (relative stereo) [Compound No. 17, ethyl N-isoamyl-2,3-epoxysuccinamate], for which the ID50 is 28.41 γ.

As for `CCOC(=O)[C@@H]1O[C@H]1C(=O)NC1CCCC1` (relative stereo) [Compound No. 18, ethyl N-cyclopentyl-2,3-epoxysuccinamate], the ID50 is on record as 22.36 γ.

Turning to `CCOC(=O)[C@@H]1O[C@H]1C(=O)NC1CCCCC1` (relative stereo) [Compound No. 19, ethyl N-cyclohexyl-2,3-epoxysuccinamate], the ID50 is on record as 20.83 γ.

In the case of `CCOC(=O)[C@@H]1O[C@H]1C(=O)NCC1CCCCC1` (relative stereo) [Compound No. 20, ethyl N-cyclohexanemethyl-2,3-epoxysuccinamate], the ID50 is recorded as 20.49 γ.

On to `CCOC(=O)[C@@H]1O[C@H]1C(=O)N1CCOCC1` (relative stereo) [Compound No. 21], for which the ID50 is recorded as 93.28 γ.

Consider `CCOC(=O)[C@@H]1O[C@H]1C(=O)N1CCSCC1` (relative stereo) [Compound No. 22, ethyl N-thiadiethylene-2,3-epoxysuccinamate], for which the ID50 is recorded as 95.01 γ.

In the case of `CCOC(=O)[C@@H]1O[C@H]1C(=O)N1CCN(C)CC1` (relative stereo) [Compound No. 23, ethyl N-N'-methylaminodiethylene-2,3-epoxysuccinamate], the ID50 is 868.05 γ.

For `O=C(Nc1ccc(I)cc1)[C@@H]1O[C@H]1C(=O)OC1CCCC1` (relative stereo) [Compound No. 24, cyclopentyl N-4'-iodophenyl-2,3-epoxysuccinamate], the ID50 was 3.47 γ.

In the case of `O=C(Nc1ccccc1)[C@@H]1O[C@H]1C(=O)OCCC1CCCC1` (relative stereo) [Compound No. 26, 2'-cyclopentylethyl N-phenyl-2,3-epoxysuccinamate], the ID50 is 2.08 γ.

On to `O=C(Nc1ccccc1)[C@@H]1O[C@H]1C(=O)OCCCC1CCCCC1` (relative stereo) [Compound No. 27, 3'-cyclohexylpropyl N-phenyl-2,3-epoxysuccinamate], for which the ID50 was 3.05 γ.

Regarding `O=C(Nc1ccccc1)[C@@H]1O[C@H]1C(=O)Oc1ccccc1` (relative stereo) [Compound No. 28, phenyl N-phenyl-2,3-epoxysuccinamate], the ID50 was 6.41 γ.

In the case of `COc1ccccc1NC(=O)[C@@H]1O[C@H]1C(=O)OCc1ccccc1` (relative stereo) [Compound No. 29, benzyl N-2'-methoxyphenyl-2,3-epoxysuccinamate], the ID50 is 2.91 γ.

For the compound `C=CCOC(=O)[C@@H]1O[C@H]1C(=O)Nc1ccccc1` (relative stereo) [Compound No. 30, allyl N-phenyl-2,3-epoxysuccinamate], the ID50 was 3.68 γ.

In the case of `CCOC(=O)[C@@H]1O[C@H]1C(=O)N(C)CC1CCCCC1` (relative stereo) [Compound No. 32, ethyl N-methyl-N-cyclohexanemethyl-2,3-epoxysuccinamate], the ID50 is 71.40 γ.

On to `COC(=O)[C@@H]1O[C@H]1C(=O)Nc1ccccc1C` (relative stereo) [Compound No. 35, Methyl N-2'-methylphenyl-2,3-epoxysuccinamate], for which the ID50 is given as 16.52 γ.

`CCCOC(=O)[C@@H]1O[C@H]1C(=O)Nc1ccc(I)cc1` (relative stereo) [Compound No. 36, Propyl N-4'-iodophenyl-2,3-epoxysuccinamate]: the ID50 is recorded as 4.04 γ.

For `COc1ccccc1NC(=O)[C@H]1O[C@@H]1C(=O)OC(C)C` (relative stereo) [Compound No. 37, Isopropyl N-2'-methoxyphenyl-2,3-epoxysuccinamate], the ID50 was 5.81 γ.

With `CC(C)COC(=O)[C@H]1O[C@@H]1C(=O)NCc1ccco1` (relative stereo) [Compound No. 39, Isobutyl N-furfuryl-2,3-epoxysuccinamate], the ID50 is given as 3.08 γ.

Consider `CC#CCOC(=O)[C@H]1O[C@@H]1C(=O)NCC` (relative stereo) [Compound No. 41, 2'-Butynyl N-ethyl-2,3-epoxysuccinamate], for which the ID50 is reported as 15.23 γ.

Take `CC#CCOC(=O)[C@@H]1O[C@H]1C(=O)NCc1cccs1` (relative stereo) [Compound No. 42, 2'-Butynyl N-thenyl-2,3-epoxysuccinamate]: the ID50 is listed as 14.15 γ.

`CC(C)CCOC(=O)[C@H]1O[C@@H]1C(=O)Nc1ccccc1` (relative stereo) [Compound No. 43, Isoamyl N-phenyl-2,3-epoxysuccinamate]: the ID50 is recorded as 3.01 γ.

Consider `O=C(NC1CCCCC1)[C@H]1O[C@@H]1C(=O)OC1CCCCC1` (relative stereo) [Compound No. 44, Cyclohexyl N-cyclohexyl-2,3-epoxysuccinamate], for which the ID50 is 3.14 γ.

Take `O=C(Nc1ccccc1)[C@H]1O[C@@H]1C(=O)OC1C=CCC1` (relative stereo) [Compound No. 46, 2'-Cyclopentenyl N-phenyl-2,3-epoxysuccinamate]: the ID50 is listed as 2.98 γ.

For `O=C(NC1CCCC1)[C@H]1O[C@@H]1C(=O)Oc1ccccc1` (relative stereo) [Compound No. 47, Phenyl N-cyclopentyl-2,3-epoxysuccinamate], the ID50 is on record as 3.64 γ.

As for `O=C(Nc1cccc(F)c1)[C@H]1O[C@@H]1C(=O)OCc1ccccc1` (relative stereo) [Compound No. 49, Benzyl N-3'-fluorophenyl-2,3-epoxysuccinamate], the ID50 is 3.94 γ.

Consider `COC(=O)[C@H]1O[C@@H]1C(=O)Nc1ccccc1` (relative stereo) [Compound No. 50, methyl N-phenyl-2,3-epoxysuccinamate], for which the ID50 is given as 16.95 γ.

As for `CCOC(=O)[C@H]1O[C@@H]1C(=O)Nc1cccc(C)c1` (relative stereo) [Compound No. 51, ethyl N-3'-methylphenyl-2,3-epoxysuccinamate], the ID50 was 18.66 γ.

For the origin of these results see patent publication US4387238A, “Epoxysuccinamic acid compounds” (Taisho Pharmaceutical Co., Ltd., priority 1978, dated 1983).
